Laboratory results published in US20130072430A1, “METHODS FOR TREATMENT OR PROPHYLAXIS OF KIDNEY OR LIVER DYSFUNCTION” (NPS PHARMACEUTICALS, INC., priority 2010, published 2013).

Test system: Human patients with short bowel syndrome
Test: Example 2: liver biomarkers (albumin, gamma glutamyl transferase, total bilirubin, ALT, AST, ALP) in short bowel syndrome patients, every four weeks for 24 weeks
Format: in vivo
Settings: 0.05 mg/kg/d; for Gamma Glutamyl Transferase Observed Value, Mean / Gamma Glutamyl Transferase Observed Value, Median / ALKALINE PHOSPHATASE Change from Baseline, Median / ALT Change from Baseline, Mean / ALT Change from Baseline, Median / ALT Observed Value, Mean / ALT Observed Value, Median / AST Change from Baseline, Mean / AST Change from Baseline, Median / AST Observed Value, Mean / AST Observed Value, Median / Albumin Change from Baseline, Mean / Albumin Change from Baseline, Median / Albumin Observed Value, Mean / Albumin Observed Value, Median / Alkaline Phosphatase Change from Baseline, Mean / Alkaline Phosphatase Observed Value, Mean / Alkaline Phosphatase Observed Value, Median / Bilirubin Change from Baseline, Mean / Bilirubin Change from Baseline, Median / Bilirubin Observed Value, Mean / Bilirubin Observed Value, Median / Gamma Glutamyl Transferase Change from Baseline, Mean / Gamma Glutamyl Transferase Change from Baseline, Median: n=38; for ALT >10% decrease from Baseline, % of subjects / ALT >10% decrease from Baseline, n subjects / ALT >10% increase from Baseline, % of subjects / ALT >10% increase from Baseline, n subjects / ALT Within 10% of Baseline, % of subjects / ALT Within 10% of Baseline, n subjects / AST >10% decrease from Baseline, % of subjects / AST >10% decrease from Baseline, n subjects / AST >10% increase from Baseline, % of subjects / AST >10% increase from Baseline, n subjects / AST Within 10% of Baseline, % of subjects / AST Within 10% of Baseline, n subjects / Albumin >10% decrease from Baseline, % of subjects / Albumin >10% decrease from Baseline, n subjects / Albumin >10% increase from Baseline, n subjects / Albumin Within 10% of Baseline, % of subjects / Albumin Within 10% of Baseline, n subjects / Alkaline Phosphatase >10% decrease from Baseline, % of subjects / Alkaline Phosphatase >10% decrease from Baseline, n subjects / Alkaline Phosphatase >10% increase from Baseline, % of subjects / Alkaline Phosphatase >10% increase from Baseline, n subjects / Alkaline Phosphatase Within 10% of Baseline, % of subjects / Alkaline Phosphatase Within 10% of Baseline, n subjects / Bilirubin >10% decrease from Baseline, % of subjects / Bilirubin >10% decrease from Baseline, n subjects / Bilirubin >10% increase from Baseline, % of subjects / Bilirubin >10% increase from Baseline, n subjects / Bilirubin Within 10% of Baseline, % of subjects / Bilirubin Within 10% of Baseline, n subjects: m=38
Procedure: To further confirm the results of Example 1, a further study was conducted involving more individuals and additional diagnostic biomarkers. Human patients with short bowel syndrome were divided into two groups: a control group (43 total individuals) to receive placebo, and an experimental group (42 total individuals) to receive teduglutide at 0.05 mg/kg/day throughout the study. Patients were treated by subcutaneous injection of placebo or the appropriate dose of teduglutide. Known biomarkers of liver function were monitored every four weeks, for 24 weeks. The liver biomarkers tested included albumin, gamma glutamyl transferase, total bilirubin, ALT and AST and ALP. Before administration of placebo or teduglutide, diagnostic biomarker levels were tested to establish a baseline for each individual.
To determine the effect of GLP-2 on the levels of the diagnostic biomarkers, the average level of each biomarker was measured for the placebo and teduglutide treated groups for each visit. Furthermore, the average change from baseline was calculated using the established baseline values. For FIGS. 17-28, p-values were calculated using the t-test.
P values are provided, which were calculated for each distribution of biomarker changes for each week using the chi-squared test.

CC[C@H](C)[C@H](NC(=O)[C@H](Cc1ccccc1)NC(=O)[C@H](CC(=O)O)NC(=O)[C@H](CCCNC(=N)N)NC(=O)[C@H](C)NC(=O)[C@H](C)NC(=O)[C@H](CC(C)C)NC(=O)[C@H](CC(N)=O)NC(=O)[C@H](CC(=O)O)NC(=O)[C@H](CC(C)C)NC(=O)[C@@H](NC(=O)[C@@H](NC(=O)[C@H](CC(N)=O)NC(=O)[C@H](CCSC)NC(=O)[C@H](CCC(=O)O)NC(=O)[C@H](CC(=O)O)NC(=O)[C@H](CO)NC(=O)[C@H](Cc1ccccc1)NC(=O)[C@H](CO)NC(=O)CNC(=O)[C@H](CC(=O)O)NC(=O)CNC(=O)[C@@H](N)Cc1c[nH]cn1)[C@@H](C)O)[C@@H](C)CC)C(=O)N[C@@H](CC(N)=O)C(=O)N[C@@H](Cc1c[nH]c2ccccc12)C(=O)N[C@@H](CC(C)C)C(=O)N[C@H](C(=O)N[C@@H](CCC(N)=O)C(=O)N[C@H](C(=O)N[C@@H](CCCCN)C(=O)N[C@H](C(=O)N[C@H](C(=O)N[C@@H](CC(=O)O)C(=O)O)[C@@H](C)O)[C@@H](C)CC)[C@@H](C)O)[C@@H](C)CC [teduglutide]
Gamma Glutamyl Transferase Observed Value, Mean (Week 16): 72.4 U/L
Gamma Glutamyl Transferase Observed Value, Median (Week 16): 54 U/L
ALT >10% decrease from Baseline, % of subjects (Week 20): (60.5%)
ALT >10% decrease from Baseline, n subjects (Week 20): 23
ALT >10% increase from Baseline, % of subjects (Week 20): (13.2%)
ALT >10% increase from Baseline, n subjects (Week 20): 5
ALT Within 10% of Baseline, % of subjects (Week 20): (26.3%)
ALT Within 10% of Baseline, n subjects (Week 20): 10
AST >10% decrease from Baseline, % of subjects (Week 20): (52.6%)
AST >10% decrease from Baseline, n subjects (Week 20): 20
AST >10% increase from Baseline, % of subjects (Week 20): (18.4%)
AST >10% increase from Baseline, n subjects (Week 20): 7
AST Within 10% of Baseline, % of subjects (Week 20): (28.9%)
AST Within 10% of Baseline, n subjects (Week 20): 11
Albumin >10% decrease from Baseline, % of subjects (Week 20): (2.6%)
Albumin >10% decrease from Baseline, n subjects (Week 20): 1
Albumin >10% increase from Baseline, n subjects (Week 20): 0
Albumin Within 10% of Baseline, % of subjects (Week 20): (97.4%)
Albumin Within 10% of Baseline, n subjects (Week 20): 37
Alkaline Phosphatase >10% decrease from Baseline, % of subjects (Week 20): (60.5%)
Alkaline Phosphatase >10% decrease from Baseline, n subjects (Week 20): 23
Alkaline Phosphatase >10% increase from Baseline, % of subjects (Week 20): (7.9%)
Alkaline Phosphatase >10% increase from Baseline, n subjects (Week 20): 3
Alkaline Phosphatase Within 10% of Baseline, % of subjects (Week 20): (31.6%)
Alkaline Phosphatase Within 10% of Baseline, n subjects (Week 20): 12
Bilirubin >10% decrease from Baseline, % of subjects (Week 20): (65.8%)
Bilirubin >10% decrease from Baseline, n subjects (Week 20): 25
Bilirubin >10% increase from Baseline, % of subjects (Week 20): (21.1%)
Bilirubin >10% increase from Baseline, n subjects (Week 20): 8
Bilirubin Within 10% of Baseline, % of subjects (Week 20): (13.2%)
Bilirubin Within 10% of Baseline, n subjects (Week 20): 5
ALKALINE PHOSPHATASE Change from Baseline, Median (Week 20): −25.5 U/L
ALT Change from Baseline, Mean (Week 20): −10.3 U/L
ALT Change from Baseline, Median (Week 20): −6.5 U/L
ALT Observed Value, Mean (Week 20): 34.8 U/L
ALT Observed Value, Median (Week 20): 28.5 U/L
AST Change from Baseline, Mean (Week 20): −4.2 U/L
AST Change from Baseline, Median (Week 20): −2.5 U/L
AST Observed Value, Mean (Week 20): 28.4 U/L
AST Observed Value, Median (Week 20): 24.5 U/L
Albumin Change from Baseline, Mean (Week 20): -0.6 g/L
Albumin Change from Baseline, Median (Week 20): -1 g/L
Albumin Observed Value, Mean (Week 20): 41.8 g/L
Albumin Observed Value, Median (Week 20): 43 g/L
Alkaline Phosphatase Change from Baseline, Mean (Week 20): −28.6 U/L
Alkaline Phosphatase Observed Value, Mean (Week 20): 109.8 U/L
Alkaline Phosphatase Observed Value, Median (Week 20): 94.5 U/L
Bilirubin Change from Baseline, Mean (Week 20): -2.76 µmol/L
Bilirubin Change from Baseline, Median (Week 20): -1.7 µmol/L
Bilirubin Observed Value, Mean (Week 20): 9.88 µmol/L
Bilirubin Observed Value, Median (Week 20): 7.85 µmol/L
Gamma Glutamyl Transferase Change from Baseline, Mean (Week 20): −9.6 U/L
Gamma Glutamyl Transferase Change from Baseline, Median (Week 20): −8 U/L
Gamma Glutamyl Transferase Observed Value, Mean (Week 20): 70.1 U/L
Gamma Glutamyl Transferase Observed Value, Median (Week 20): 47.5 U/L
ALT >10% decrease from Baseline, % of subjects (Week 24): (63.2%)
ALT >10% decrease from Baseline, n subjects (Week 24): 24
ALT >10% increase from Baseline, % of subjects (Week 24): (10.5%)
ALT >10% increase from Baseline, n subjects (Week 24): 4
ALT Within 10% of Baseline, % of subjects (Week 24): (26.3%)
ALT Within 10% of Baseline, n subjects (Week 24): 10
AST >10% decrease from Baseline, % of subjects (Week 24): (63.2%)
AST >10% decrease from Baseline, n subjects (Week 24): 24
AST >10% increase from Baseline, % of subjects (Week 24): (15.8%)
AST >10% increase from Baseline, n subjects (Week 24): 6
AST Within 10% of Baseline, % of subjects (Week 24): (21.1%)
AST Within 10% of Baseline, n subjects (Week 24): 8
Albumin >10% decrease from Baseline, % of subjects (Week 24): (5.3%)
Albumin >10% decrease from Baseline, n subjects (Week 24): 2
Albumin >10% increase from Baseline, n subjects (Week 24): 0
Albumin Within 10% of Baseline, % of subjects (Week 24): (94.7%)
Albumin Within 10% of Baseline, n subjects (Week 24): 36
Alkaline Phosphatase >10% decrease from Baseline, % of subjects (Week 24): (60.5%)
Alkaline Phosphatase >10% decrease from Baseline, n subjects (Week 24): 23
Alkaline Phosphatase >10% increase from Baseline, % of subjects (Week 24): (15.8%)
Alkaline Phosphatase >10% increase from Baseline, n subjects (Week 24): 6
Alkaline Phosphatase Within 10% of Baseline, % of subjects (Week 24): (23.7%)
Alkaline Phosphatase Within 10% of Baseline, n subjects (Week 24): 9
Bilirubin >10% decrease from Baseline, % of subjects (Week 24): (68.4%)
Bilirubin >10% decrease from Baseline, n subjects (Week 24): 26
Bilirubin >10% increase from Baseline, % of subjects (Week 24): (15.8%)
Bilirubin >10% increase from Baseline, n subjects (Week 24): 6
Bilirubin Within 10% of Baseline, % of subjects (Week 24): (15.8%)
Bilirubin Within 10% of Baseline, n subjects (Week 24): 6
ALKALINE PHOSPHATASE Change from Baseline, Median (Week 24): −24.5 U/L
ALT Change from Baseline, Mean (Week 24): −13.5 U/L
ALT Change from Baseline, Median (Week 24): −7.5 U/L
ALT Observed Value, Mean (Week 24): 28.5 U/L
ALT Observed Value, Median (Week 24): 23.5 U/L
AST Change from Baseline, Mean (Week 24): −5.8 U/L
AST Change from Baseline, Median (Week 24): −5 U/L
AST Observed Value, Mean (Week 24): 25.8 U/L
AST Observed Value, Median (Week 24): 23 U/L
Albumin Change from Baseline, Mean (Week 24): -0.4 g/L
Albumin Change from Baseline, Median (Week 24): 0 g/L
Albumin Observed Value, Mean (Week 24): 41.9 g/L
Albumin Observed Value, Median (Week 24): 42 g/L
Alkaline Phosphatase Change from Baseline, Mean (Week 24): −29.2 U/L
Alkaline Phosphatase Observed Value, Mean (Week 24): 106.2 U/L
Alkaline Phosphatase Observed Value, Median (Week 24): 88 U/L
Bilirubin Change from Baseline, Mean (Week 24): -3.68 µmol/L
Bilirubin Change from Baseline, Median (Week 24): -2.35 µmol/L
Bilirubin Observed Value, Mean (Week 24): 8.64 µmol/L
Bilirubin Observed Value, Median (Week 24): 6.8 µmol/L
Gamma Glutamyl Transferase Change from Baseline, Mean (Week 24): −13.6 U/L
Gamma Glutamyl Transferase Change from Baseline, Median (Week 24): −6 U/L
Gamma Glutamyl Transferase Observed Value, Mean (Week 24): 60.4 U/L
Gamma Glutamyl Transferase Observed Value, Median (Week 24): 40.5 U/L
